Laboratory results: patent publication US20100222396A1 (Novartis AG, priority 2009, published 2010)

How the values were obtained:
[1] = molecular target: T1, human orexin 2 receptor (hOx2R) (Homo sapiens, UniProt O43614); assay: Radioligand binding assay ([125I]orexin A competition), hOx2R; details: CHO or HEK cell membranes, 1 h room temperature
T1 construct: expressed in transfected cells
T1 sequence (O43614 1-444): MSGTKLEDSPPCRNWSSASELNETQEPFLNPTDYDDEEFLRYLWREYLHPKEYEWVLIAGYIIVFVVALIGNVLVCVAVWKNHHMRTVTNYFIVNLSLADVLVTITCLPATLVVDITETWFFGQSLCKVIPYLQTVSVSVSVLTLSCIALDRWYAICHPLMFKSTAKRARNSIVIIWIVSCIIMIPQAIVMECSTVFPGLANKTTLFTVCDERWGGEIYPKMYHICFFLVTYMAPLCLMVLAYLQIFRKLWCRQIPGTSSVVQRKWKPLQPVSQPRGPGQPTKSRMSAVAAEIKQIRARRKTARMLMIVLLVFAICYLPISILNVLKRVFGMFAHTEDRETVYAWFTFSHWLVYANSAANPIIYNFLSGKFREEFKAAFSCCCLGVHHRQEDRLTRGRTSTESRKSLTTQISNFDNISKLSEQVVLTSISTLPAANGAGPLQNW
Experimental: (§1) For crude cell membrane preparations, cells (CHO, Chinese hamster ovary or HEK, human embryonic kidney) expressing human orexin 1 or human orexin 2 receptors, were washed with HEPES (10 mM, pH 7.5), scraped off the culture plates with the same buffer, and centrifuged at 4° C. for 5 min at 2500×g. The cell pellet was either stored at −80° C. or used directly. Before the experiments, cell membranes were re-suspended in binding assay buffer (10 mM HEPES, 0.5% (w/v) bovine serum albumin, pH 7.5) by homogenisation with a Polytron homogeniser at 50 Hz for 20 s. Cell membranes were also used as made available by commercial providers.
(§2) In initial saturation experiments (to calculate Bmax), cell homogenates (150 μl) were incubated with 25-300 pM of the radioligand ([^125I]orexin A, 50 μl), 8 concentrations in triplicates in the presence or absence Orexin A (1 μM, 50 μl) to define non specific binding. Bound radioactivity was measured, and data were analysed with the program XLFIT or Graphpad Prism. Protein concentration was determined according to the Bradford/BioRad Protein Assay Kit.
(§3) In competition experiments, cell homogenates (150 μl) were incubated in assay buffer (10 mM HEPES, pH 7.5, 0.5% (w/v) bovine serum albumin, 5 mM MgCl2, […], and tween 0.05%) for 1 h at room temperature with about […] of the radioligand ([^125I]orexin A, 2100 Ci/mmole, 50 μl), and with various concentrations of compounds of the invention (50 μl) in triplicates; non-specific binding was determined in the presence of Orexin A (1 μM). Reactions were terminated by vacuum filtration, 3 washes of ice cold wash buffer (Tris-HCl pH 7.4/10 mM, with NaCl 154 mM). Competition data is expressed in Table 1 as Kd [μM].

[2] = molecular target: T2, human orexin 1 receptor (hOx1R) (Homo sapiens, UniProt O43613); assay: Calcium accumulation in cells (FLIPR), antagonism of orexin A, hOx1R; format: cell-based; details: for Kd: cells expressing human orexin 1 receptor, IC50 vs orexin A converted by Cheng and Prusoff correction; for inhibition at 10 µM: measured at a concentration of 10 μM of compound (cells marked ^a)
T2 construct: expressed in transfected cells
T2 sequence (O43613 1-425): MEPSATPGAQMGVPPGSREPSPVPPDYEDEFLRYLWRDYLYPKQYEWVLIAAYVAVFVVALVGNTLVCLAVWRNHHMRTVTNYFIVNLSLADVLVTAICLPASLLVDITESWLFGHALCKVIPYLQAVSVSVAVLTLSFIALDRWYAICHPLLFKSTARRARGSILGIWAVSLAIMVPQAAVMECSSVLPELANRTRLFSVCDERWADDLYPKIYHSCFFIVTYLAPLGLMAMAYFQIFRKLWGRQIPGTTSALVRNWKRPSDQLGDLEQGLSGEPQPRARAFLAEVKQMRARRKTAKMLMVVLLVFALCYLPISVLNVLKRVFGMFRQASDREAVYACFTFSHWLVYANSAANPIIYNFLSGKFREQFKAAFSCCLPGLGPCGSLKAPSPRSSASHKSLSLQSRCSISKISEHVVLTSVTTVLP
Outline: (§4)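 Serum-starved receptor-expressing cells were loaded with Fluo-4-AM (2 μM) plus probenecid (0.1 mM) in HEPES buffer, pH 7.4, with 1% BSA, and Ca2+ fluorescence was read on FLIPR. Compounds (10^−9–10^−5 M) were added first, and orexin A was added one hour later to measure antagonism.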

[3] = molecular target: T1, human orexin 2 receptor (hOx2R); assay: Calcium accumulation in cells (FLIPR), antagonism of orexin A, hOx2R; format: cell-based; details: for Kd: cells expressing human orexin 2 receptor, IC50 vs orexin A converted by Cheng and Prusoff correction; for inhibition at 10 µM: measured at a concentration of 10 μM of compound (cells marked ^a)
Outline: as §4

[4] = molecular target: T2, human orexin 1 receptor (hOx1R); assay: Radioligand binding assay ([125I]orexin A competition), hOx1R; details: CHO or HEK cell membranes, 1 h room temperature
Experimental: as §1, §2, §3

SMILES | Kd [1] | Kd [2] | Kd [3] | Kd [4] | inhibition at 10 µM [3] | inhibition at 10 µM [2]
COc1cc(OC)cc(C(=O)N(C)[C@H](CCNC(=O)c2ccccn2)Cc2ccccc2)c1 [Example 41, Pyridine-2-carboxylic acid {(S)-3-[(3,5-dimethoxy-benzoyl)-methyl-amino]-4-phenyl-butyl}-amide] | 0.484 µM | 1.6 µM | 0.196 µM | 1.73 µM |  | 
CN(C(=O)c1ccc2c(c1)OCO2)[C@H](CCNC(=O)c1nccn1C)Cc1ccccc1 [Example 78, 1-Methyl-1H-imidazole-2-carboxylic acid {(S)-3-[(benzo[1,3]dioxole-5-carbonyl)-methyl-amino]-4-phenyl-butyl}-amide] | 0.024 µM | 1.47 µM | 0.028 µM | 0.66 µM |  | 
CN(C(=O)c1cc(C(F)(F)F)cc(C(F)(F)F)c1)[C@H](CCNC(=O)c1nc2ccccc2n1C)Cc1ccccc1 [Example 12, 1-Methyl-1H-benzoimidazole-2-carboxylic acid {(S)-3-[(3,5-bis-trifluoromethyl-benzoyl)-methyl-amino]-4-phenyl-butyl}-amide] | 0.098 µM | 0.437 µM | 0.04 µM | 1.07 µM |  | 
CN(C(=O)c1ccc2c(c1)OCCO2)[C@H](CCNC(=O)c1ccccn1)Cc1ccccc1 [Example 71, Pyridine-2-carboxylic acid {(S)-3-[(2,3-dihydro-benzo[1,4]dioxine-6-carbonyl)-methyl-amino]-4-phenyl-butyl}-amide] | 9.52 µM | 1.94 µM |  | 1.61 µM | 28% | 
COc1cc(OC)cc(C(=O)N(C)[C@H](CCNC(=O)c2cccn2C)Cc2ccccc2)c1 [Example 104, 1-Methyl-1H-pyrrole-2-carboxylic acid {(S)-3-[(3,5-dimethoxy-benzoyl)-methyl-amino]-4-phenyl-butyl}-amide] | 0.006 µM | 0.609 µM | 0.004 µM | 0.123 µM |  | 
CN(C(=O)c1cccc2c1OCO2)[C@H](CCNC(=O)c1nc2ccccc2n1C)Cc1ccccc1 [Example 19, 1-Methyl-1H-benzoimidazole-2-carboxylic acid {(8)-3-[(benzo[1,3]dioxole-4-carbonyl)-methyl-amino]-4-phenyl-butyl}-amide] | 0.131 µM | 1.12 µM | 0.114 µM | 0.793 µM |  | 
CN(C(=O)c1ccc2ccccc2c1)[C@H](CCNC(=O)c1nc2ccccc2n1C)Cc1ccc(F)cc1 [Example 57, 1-Methyl-1H-benzoimidazole-2-carboxylic acid {(S)-4-(4-fluoro-phenyl)-3-[methyl-(naphthalene-2-carbonyl)-amino]-butyl}-amide] | 2.85 µM | 0.012 µM | 0.026 µM | 0.443 µM |  | 
CN(C(=O)c1cccc2ccccc12)[C@H](CCNC(=O)c1nc2ccccc2n1C)Cc1ccccc1 [Example 18, 1-Methyl-1H-benzoimidazole-2-carboxylic acid {(S)-3-[methyl-(naphthalene-1-carbonyl)-amino]-4-phenyl-butyl}-amide] | 0.129 µM | 0.1 µM | 0.014 µM | 0.332 µM |  | 
CN(C(=O)c1ccc2ccccc2c1)[C@H](CCNC(=O)c1ccccn1)Cc1ccc(F)cc1 [Example 58, Pyridine-2-carboxylic acid {(S)-4-(4-fluoro-phenyl)-3-[methyl-(naphthalene-2-carbonyl)-amino]-butyl}-amide] | 3.43 µM |  | 1.06 µM | 2.3 µM |  | 1%
CN(C(=O)c1ccc2c(c1)OCO2)[C@H](CCNC(=O)c1ccccn1)Cc1ccc(F)cc1 [Example 51, Pyridine-2-carboxylic acid [(S)-3-[(benzo[1,3]dioxole-5-carbonyl)-methyl-amino]-4-(4-fluoro-phenyl)-butyl]-amide] | 1.15 µM |  | 0.794 µM | 3.54 µM |  | 16%
CN(C(=O)c1ccccc1)[C@@H](Cc1ccccc1)[C@@H](O)CNC(=O)c1ccccn1 [Example 95, Pyridine-2-carboxylic acid [(2S,3S)-3-(benzoyl-methyl-amino)-2-hydroxy-4-phenyl-butyl]-amide] | 0.059 µM | 3.43 µM | 0.14 µM | 3.44 µM |  | 
CN(C(=O)c1ccc2c(c1)OCO2)[C@H](CCNC(=O)c1ccccn1)Cc1ccc(Cl)cc1 [Example 25, Pyridine-2-carboxylic acid [(S)-3-[(benzo[1,3]dioxole-5-carbonyl)-methyl-amino]-4-(4-chloro-phenyl)-butyl]-amide] | 0.308 µM | 1 µM | 0.036 µM | 2.22 µM |  | 
COc1cccc(C(=O)N(C)[C@H](CCNC(=O)c2cccn2C)Cc2ccccc2)c1 [Example 103, 1-Methyl-1H-pyrrole-2-carboxylic acid {(S)-3-[(3-methoxy-benzoyl)-methyl-amino]-4-phenyl-butyl}-amide] | 0.019 µM | 1.4 µM | 0.008 µM | 0.624 µM |  | 
CN(C(=O)c1ccc2c(ccn2C)c1)[C@H](CCNC(=O)c1ccccn1)Cc1ccccc1 [Example 84, 1-Methyl-1H-indole-5-carboxylic acid {(S)-1-benzyl-3-[(pyridine-2-carbonyl)-amino]-propyl}-methyl-amide] | 1.33 µM | 0.05 µM | 0.809 µM | 0.03 µM |  | 
C[C@H](CNC(=O)c1ccccn1)[C@H](Cc1ccccc1)N(C)C(=O)c1ccccc1 [Example 112, Pyridine-2-carboxylic acid [(2R,3S)-3-(benzoyl-methyl-amino)-2-methyl-4-phenyl-butyl]-amide] | 1.16 µM | 0.415 µM | 0.498 µM | 0.477 µM |  | 
CN(C(=O)c1ccc2occc2c1)[C@H](CCNC(=O)c1ccccn1)Cc1ccccc1 [Example 20, Pyridine-2-carboxylic acid {(8)-3-[(benzofuran-5-carbonyl)-methyl-amino]-4-phenyl-butyl}-amide] | 0.168 µM | 0.413 µM | 0.123 µM | 0.163 µM |  | 
CN(C(=O)c1ccccc1)[C@H](CCNC(=O)c1ccnc2ccccc12)Cc1ccccc1 [Example 2, Quinoline-4-carboxylic acid [(S)-3-(benzoyl-methyl-amino)-4-phenyl-butyl]-amide] | 4.97 µM |  |  | > 10 µM | 19% | 4%
COc1cc(F)cc(C(=O)N(C)[C@H](CCNC(=O)c2cccn2C)Cc2ccccc2)c1 [Example 105, 1-Methyl-1H-pyrrole-2-carboxylic acid {(S)-3-[(3-fluoro-5-methoxy-benzoyl)-methyl-amino]-4-phenyl-butyl}-amide] | 0.012 µM | 0.811 µM | 0.007 µM | 0.286 µM |  | 
CN(C(=O)c1ccc2ccccc2c1)[C@H](CCNC(=O)c1nc2ccccc2n1C)Cc1ccccc1 [Example 44, 1-Methyl-1H-benzoimidazole-2-carboxylic acid {(S)-3-[methyl-(naphthalene-2-carbonyl)-amino]-4-phenyl-butyl}-amide] | 0.781 µM | 0.033 µM | 0.09 µM | 0.082 µM |  | 
